Values after ≈ are worked out from the molar mass of the structure shown.
Columns and labels:
T. inkin (ATCC 18020) = assay: Frequency of occurrence of spontaneous mutants; format: cell-based, Trichosporon inkin; details: four times the broth macrodilution MIC
Experimental: Determination of the frequency of occurrence of spontaneous mutants was performed as previously described. Overnight cultures of C neoformans (ATCC 90112), C. albicans (ATCC 90028) and Trichosporon inkin (ATCC 18020) were diluted to an OD530 nm=0.3. 0.1 ml of each preparation was spread onto SDA plates containing four or eight times the broth macrodilution MIC of TMPN. The starting inoculum for each organism was also diluted and plated onto drug-free SDA plates for determination of cfu/ml. After a 48 h incubation at the appropriate temperature (see Fungal Strains section above), the number of colonies on drug-supplemented SDA was counted. The frequency of occurrence of spontaneous mutants was calculated by dividing the number of colonies on drug-containing plates by the number of colonies in the inoculum. When no colonies were visualized on drug-containing plates, the calculation was (<) 1 colony divided by the number of colonies in the inoculum.

bovine brain tubulin = test system: T1, bovine brain tubulin; assay: Colchicine binding assay; details: 10 min at 37° C.
T1 construct: Electrophoretically homogeneous bovine brain tubulin [12]
Experimental: Electrophoretically homogeneous bovine brain tubulin [12] was used in studies to evaluate the effects of TMPN on in vitro tubulin polymerization and the binding of […] (Dupont-NEN) to tubulin. These studies were performed as described previously. In the polymerization assay, varying drug concentrations were added to 1 mg/ml tubulin to determine the amount of drug that would inhibit the extent of the reaction by 50% (20 min incubation at 30° C.) (IC50 value). In the colchicine binding assay, the effect of varying drug concentrations on the binding of 2 μg/ml colchicine to 100 μg/ml tubulin was measured after 10 min at 37° C. (control reaction about 50% complete).

C. krusei (10) = assay: Broth macrodilution MIC/MFC; format: cell-based, Candida krusei
Experimental: (§1) TMPN was screened against yeasts by the broth macrodilution assay according to the NCCLS [7]. Yeasts were suspended and diluted as recommended to yield final inocula ranging from 0.5-2.5×10^3 cfu/ml. Tests were performed in sterile 12 by 75 mm plastic tubes containing two-fold dilutions of TMPN in 0.165 M morpholinepropanesulfonic acid buffered RPMI 1640 medium (pH 7.0). One tube was again left drug free (but contained an equivalent volume of DMSO) for a turbidity control. Tubes were incubated without agitation at the appropriate temperature (see Fungal Strains section above). MICs were determined after 72 h for Cryptococcus and after 48 h for other yeast genera. The MIC was defined as the lowest concentration of TMPN that inhibited all visible growth of the test organism (optically clear).
(§2) Minimum fungicidal concentrations (MFCs) were determined by subculturing 0.1 ml from each tube with no visible growth in the MIC broth macrodilution series onto the appropriate drug-free plates (see Fungal Strains section above).

C. guilliermondii (9) = assay: Broth macrodilution MIC/MFC; format: cell-based, Candida guilliermondii
Experimental: as §1, §2

C. neoformans (24) = assay: Broth macrodilution MIC/MFC; format: cell-based, Cryptococcus neoformans
Experimental: as §1, §2

C. neoformans ATCC 14116 = assay: Broth macrodilution MIC/MFC; format: cell-based, Cryptococcus neoformans
Experimental: as §1, §2

C. neoformans ATCC 66031 = assay: Broth macrodilution MIC/MFC; format: cell-based, Cryptococcus neoformans
Experimental: as §1, §2

C. neoformans ATCC 32045 = assay: Broth macrodilution MIC/MFC; format: cell-based, Cryptococcus neoformans
Experimental: as §1, §2

[1] = test system: Aspergillus fumigatus ATCC 96918; assay: Broth macrodilution MIC/MFC, filamentous fungi; format: cell-based; details: for MFC / MIC: Aspergillus fumigatus
Experimental: Susceptibility testing of filamentous fungi was also conducted. Broth macrodilution susceptibility testing of P. lilacinus, Rhizopus spp. and Aspergillus spp. was performed in accordance with a proposed standardized procedure with slight modification. To induce conidium and sporangiospore formation, fungi were grown on PDA slants at 35° C. for 6 days (P. lilacinus, Rhizopus spp., all Aspergillus species except A. nidulans) or 3 days (A. nidulans). Fungal slants were covered with sterile 0.85% NaCl (P. lilacinus, Rhizopus spp., all Aspergillus species except A. nidulans) or 0.05% Tween 80 (A. nidulans), and suspensions were made by gently probing the colonies with the tip of a sterile Pasteur pipette. The resulting mixture of hyphal fragments and conidia or sporangiospores was withdrawn and transferred to a sterile clear microcentrifuge tube, and heavy particles were allowed to settle for 10 min. The upper homogenous suspension was transferred to a sterile microcentrifuge tube, vortexed for 15 s, adjusted spectrophotometrically, and diluted in sterile 0.165 M MOPS-buffered RPMI medium, pH 7.0, to yield final inocula ranging from 0.5-2.5×10^3 cfu/ml. Susceptibility to TMPN was then determined by broth macrodilution as described above for yeast isolates. MICs were read after 48 h The MIC was defined as the lowest concentration of TMPN that inhibited all visible growth of the test organism (optically clear).
as §2
Possible host effects were also evaluated. Broth macrodilution assays were performed with RPMI medium prepared at pH 5, pH 6, and pH 7, and in RPMI medium with and without 50% normal human serum (Lampire Biological Labs). The pH experiments were performed twice on separate days.

[2] = test system: Epidermophyton floccosum ATCC 52066; assay: Broth macrodilution MIC/MFC; format: cell-based
[3] = Aspergillus fumigatus ATCC 96918
[4] = ATCC96918, Aspergillus fumigatus ATCC 96918, 50% human serum
[5] = ATCC96918, Aspergillus fumigatus ATCC 96918, no serum
[6] = ATCC96918, pH 5, Aspergillus fumigatus ATCC 96918, pH 5
[7] = ATCC96918, pH 5, Aspergillus fumigatus ATCC 96918, pH 5, repeat experiment
[8] = ATCC96918, pH 6, Aspergillus fumigatus ATCC 96918, pH 6
[9] = ATCC96918, pH 6, Aspergillus fumigatus ATCC 96918, pH 6, repeat experiment
[10] = ATCC96918, pH 7, Aspergillus fumigatus ATCC 96918, pH 7
[11] = ATCC96918, pH 7, Aspergillus fumigatus ATCC 96918, pH 7, repeat experiment

## COc1cc(C=C[N+](=O)[O-])cc(OC)c1OC [TMPN, 1-(3′,4′,5′-trimethoxyphenyl)-2-nitro-ethylene]
T. inkin (ATCC 18020)
  frequency of occurrence of single-step resistant mutants: ≤ 10^−6
Bovine brain tubulin; 5 μM (combretastatin A-4 1.6 μg/ml; TMPN 1.2 μg/ml)
  inhibition of [^3H]colchicine binding to tubulin: 13±0.5%
Bovine brain tubulin; 12 μg/ml (50 uM)
  inhibition of [^3H]colchicine binding to tubulin: 69±0.5%
C. krusei (10); C. krusei (10)
  MFC 50% (MFC at which 50% of the strains are killed): 32 µg/mL
  MFC 90% (MFC at which 90% of the strains are killed): 32 µg/mL
  MFC Range: 16 to 64 µg/mL
  MIC Range: 8 to 16 µg/mL
C. krusei (10); C. krusei clinical isolates
  share of isolates with MFC/MIC ratio <2: 70%
C. krusei (10); Pichia kudriavzevii, C. krusei (10), read-out: MIC 50% (MIC at which 50% of the strains are inhibited)
  MIC50: 8 µg/mL (≈ 33.4 µM)
C. krusei (10); Pichia kudriavzevii, C. krusei (10), read-out: MIC 90% (MIC at which 90% of the strains are inhibited)
  MIC90: 16 µg/mL (≈ 66.9 µM)
C. guilliermondii (9)
  MFC Range: >64 µg/mL
C. neoformans (24); C. neoformans (24)
  MFC 50% (MFC at which 50% of the strains are killed): 8 µg/mL
  MFC 90% (MFC at which 90% of the strains are killed): 16 µg/mL
  MFC Range: 4 to 32 µg/mL
  MIC Range: 2 to 16 µg/mL
C. neoformans (24); C. neoformans clinical isolates
  share of isolates with MFC/MIC ratio <2: 96%
C. neoformans (24); Cryptococcus neoformans clinical isolates
  share of isolates with MFC/MIC ratio ≦2: 96%
C. neoformans (24); Cryptococcus neoformans, C. neoformans (24), read-out: MIC 50% (MIC at which 50% of the strains are inhibited)
  MIC50: 4 µg/mL (≈ 16.7 µM)
C. neoformans (24); Cryptococcus neoformans, C. neoformans (24), read-out: MIC 90% (MIC at which 90% of the strains are inhibited)
  MIC90: 8 µg/mL (≈ 33.4 µM)
C. neoformans ATCC 14116
  MFC Range: 16 µg/mL (≈ 66.9 µM)
  MIC Range: 8 µg/mL (≈ 33.4 µM)
C. neoformans ATCC 66031
  MFC Range: 4 µg/mL (≈ 16.7 µM)
  MIC Range: 2 µg/mL (≈ 8.36 µM)
C. neoformans ATCC 32045
  MFC Range: 4 µg/mL (≈ 16.7 µM)
  MIC Range: 4 µg/mL (≈ 16.7 µM)
[1]; [3]
  MFC Range: >64 µg/mL
  MIC Range: 8 µg/mL (≈ 33.4 µM)
[1]; [4]
  MFC: > 64 µg/mL
  MIC: 16 µg/mL (≈ 66.9 µM)
[1]; [5]
  MFC: 16 µg/mL (≈ 66.9 µM)
  MIC: 8 µg/mL (≈ 33.4 µM)
[1]; [6]
  MFC: 32 µg/mL (≈ 134 µM)
  MIC: 4 µg/mL (≈ 16.7 µM)
[1]; [7]
  MFC: > 64 µg/mL
  MIC: 8 µg/mL (≈ 33.4 µM)
[1]; [8]
  MFC: 32 µg/mL (≈ 134 µM)
  MIC: 4 µg/mL (≈ 16.7 µM)
[1]; [9]
  MFC: > 64 µg/mL
  MIC: 8 µg/mL (≈ 33.4 µM)
[1]; [10]
  MFC: 32 µg/mL (≈ 134 µM)
  MIC: 4 µg/mL (≈ 16.7 µM)
[1]; [11]
  MFC: > 64 µg/mL
  MIC: 8 µg/mL (≈ 33.4 µM)
[2]
  MIC Range: 2 µg/mL (≈ 8.36 µM)
